The text below walks through data of paper PMC12477080, “Polychlorinated biphenyls (PCBs) interact with drug metabolism in vivo” (Archives of Toxicology, 2025).

Structures are written as SMILES.

One series has as its system CYP2D6. The experiment in a line: CYP phenotyping cocktail clinical study: metoprolol/α-OH-metoprolol metabolic ratio and its association with PCB plasma levels. The conditions noted are these: linear regression of MR AUC0–8 h α-OH-metoprolol/metoprolol (CYP2D6 activity) on PCB plasma concentration. As for the experimental part:
(§1) The participants were ascertained not to have any acute disease by medical history, physical examination, laboratory screening, including hematological and biochemical blood tests, and a 12-lead electrocardiogram. […] The demographic data of the subjects are summarized in Table 1 in the supplemental data. At the enrollment visit, 2 blood samples (9 ml each) were collected into ethylenediaminetetraacetic acid (EDTA)-containing tubes taken from each subject for analyzing the plasma concentrations of PCB congeners and for pharmacogenetic analysis.
(§2) Participants stayed fasted from the evening before until 3 h after drug administration. After that, a meal was provided. Water and juice were permitted but alcoholic and caffeinated beverages were not allowed from the evening before drug administration until the last blood sample was taken on the next day. Venous blood samples (9 ml each) were collected through an intravenous catheter immediately before and 0.25, 0.5, 0.75, 1, 1.5, 2, 2.5, 3, 4, 5, 6, 7, 8, and 24 h after drug administration. Blood was drawn into EDTA-coated tubes, centrifuged at 1500 g for 10 min at 4 °C, and plasma samples were subsequently stored at − 80 °C until further analysis. After completely voiding the bladder immediately before drug administration, the participants collected urine from 0 to 24 h after drug administration. After weighing the collected urine, a 10 ml aliquot of each fraction was taken.
(§3) Commercially sourced standards and internal standards were used for quantification (see Supplemental Materials). In brief, 20 µl of the plasma samples were protein-precipitated with 80 µl methanol containing all internal standards or were treated for 16 h at 37 °C with 2 µl β-glucuronidase (1,000,000 Units) for deconjugation before protein precipitation with 78 µl methanol containing internal standards. Samples were centrifuged for 20 min, at 4 °C and 17,000 × g, and 40 µl of the supernatants were diluted with 40 µl LC–MS grade water, centrifuged again for 5 min at 4 °C and 17,000 × g and 50 µl supernatant were transferred to LC–MS vials 5 µl of the samples were injected into the LC–MS system.
(§4) An Agilent 1290 Infinity II UHPLC coupled with a SCIEX QTRAP6500 + triple quadrupole mass spectrometer was used. Chromatographic separation was achieved on an Agilent Poroshell 120 EC-C18 (1.9 µm, 2.1 × 50 mm) column with A: 0.1% formic acid in water and B: methanol with a flow rate of 0.7 ml/min and a total run time of 8.5 min. Analytes were eluted using a gradient program. The following gradient steps represent gradual changes in % B over time: 5% B from 0 to 0.2 min, 30% B at 2 min, 34% B at 4.8 min, 95% B at 6.5 min, 95% B at 7.5 min and re-equilibrating to 5% B at 7.7 min and 5%B till 8.5 min. A representative chromatogram is shown in supplemental Fig. 2. The scheduled MRM mode was applied for analyte detection in both positive and negative ESI modes (Supplementary Table 4). Calibration curves were constructed with linear regression using weighted (1/x^2) models (detailed information in supplemental methods).
(§5) Partial areas under the plasma concentration–time curves from 0 to 3 h (AUC0–3 h), from 0 to 4 h (AUC0–4 h), and from 0 to 8 h (AUC0–8 h) were calculated based on measured concentrations by the linear trapezoidal rule without extrapolation. […] Metabolic ratios (MR) were calculated by dividing the partial AUC of the metabolite by the respective partial AUC of the parent drug. The MRs were used as biomarkers for the individual CYP activities of the study subjects.

Series [1] can be described thus: Determination of PCB concentrations in plasma of HELPcB and control participants. Type of series: in vivo. The conditions noted are these: human plasma.
Another series deals with CYP2B6. The experiment in a line: CYP phenotyping cocktail clinical study: efavirenz/8-OH-efavirenz metabolic ratio and its association with PCB plasma levels. The following applies: linear regression of MR AUC0–8 h 8-OH-efavirenz/efavirenz (CYP2B6 activity) on PCB plasma concentration. As for the experimental part:
as §1, §2, §3, §4, §5

The target in series [2] is T1, HEK293 cells overexpressing CYP1A2 (Homo sapiens, UniProt P05177).
T1 construct: expressed in transfected cells; host or cells: HEK293
T1 sequence (P05177 1-516): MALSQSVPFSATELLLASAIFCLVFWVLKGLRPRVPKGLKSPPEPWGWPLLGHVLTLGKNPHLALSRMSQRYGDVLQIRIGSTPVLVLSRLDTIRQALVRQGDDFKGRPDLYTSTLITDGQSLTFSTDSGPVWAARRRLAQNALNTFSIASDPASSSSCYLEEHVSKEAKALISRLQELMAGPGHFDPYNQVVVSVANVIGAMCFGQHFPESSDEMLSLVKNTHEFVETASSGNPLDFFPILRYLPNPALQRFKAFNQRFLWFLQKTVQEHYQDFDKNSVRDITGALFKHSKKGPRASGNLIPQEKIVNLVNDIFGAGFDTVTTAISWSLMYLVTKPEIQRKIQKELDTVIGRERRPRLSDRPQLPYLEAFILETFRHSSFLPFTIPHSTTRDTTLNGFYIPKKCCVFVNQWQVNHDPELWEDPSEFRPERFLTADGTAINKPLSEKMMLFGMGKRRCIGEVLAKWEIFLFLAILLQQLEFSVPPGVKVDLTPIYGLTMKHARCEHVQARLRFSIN
The experiment in a line: CYP1A2 activity in transgenic HEK293 cells (phenacetin probe). In kind it is cell-based. The conditions noted are these: 0.1, 0.5, 1 µM PCB118, 30 min, then 10 µM phenacetin 1 h.

The next series addresses T2, recombinant CYP1A2 (Homo sapiens, UniProt P05177).
T2 construct: purchased Promega, Madison, WI, USA
T2 sequence (P05177 1-516): T1 sequence (P05177 1-516)
The series is described as follows: Luciferase-based P450-Glo enzyme assay with recombinant CYP1A2. Type of series: biochemical. The following applies: PCB118 1–10 µM; Luciferin–ME substrate; significant at highest concentration (p < 0.0001).

The subject of a further series is CYP1A2 mRNA. The series is described as follows: CYP1A2 mRNA expression in primary human hepatocytes (qRT-PCR). In kind it is cell-based. The conditions noted are these: three donors, 48 h exposure, PCB118 0.1–0.5 µM, omeprazole positive control. In general terms: In qPCR the cycle at which signal appears reflects the starting amount.

For the compound `Clc1ccc(-c2cc(Cl)c(Cl)cc2Cl)cc1Cl` [PCB118], the t value is 2,169 in the series on CYP2D6, 1,020 with CYP2B6 and 0,839 in the series on CYP2B6 (PM excl). The “β (standardized regression coefficient)” value is recorded as 0,455 in the series on CYP2D6, 0,255 in the series on CYP2B6 and 0,227 with CYP2B6 (PM excl). The “PCB plasma concentration, Mean [±SD] HELPcB” value in series [1] (HELPcB (occupationally exposed) group) was 0.122 ± 0.122 ng/mL. Besides, the “PCB plasma concentration, Geometric mean, HELPcB” value in series [1] (HELPcB group, N 10) came to 0.075 ng/mL. The “PCB plasma concentration, Mean [±SD] all” value in series [1] (all participants) was determined as 0.072 ± 0.099 ng/mL. The “PCB plasma concentration, Mean [±SD] control” value in series [1] (control group (background exposure)) was found to be 0.022 ± 0.012 ng/mL. Besides, in series [1] (control group, N 10), the “PCB plasma concentration, Geometric mean, Control” value worked out at 0.019 ng/mL. For the same compound, the “effect on CYP1A2 activity in HEK293 cells (phenacetin probe)” value in series [2] is given as “significantly inhibited CYP1A2 activity in a dose-dependent manner”. At recombinant CYP1A2, the “effect on CYP1A2 enzyme activity (luminescence)” value is “concentration-dependent inhibitory effect”. Besides, in the series on CYP1A2 mRNA, the “effect on CYP1A2 mRNA expression” value is listed as “did not significantly alter CYP1A2 mRNA levels”.
